For the experiment, the system named is medication-free depressed outpatients. Briefly: EMBARC placebo-controlled randomized clinical trial, treatment response on HAMD17. In kind it is in vivo, human. Conditions: for response rate (≥50% reduction in symptoms): sertraline arm, 8 weeks, 50-200 mg. An excerpt: Data were drawn from four studies. Establishment of the treatment-predictive rsEEG signature was accomplished with data from the Establishing Moderators and Biosignatures of Antidepressant Response in Clinic Care (EMBARC) study^21. EMBARC is the largest neuroimaging-coupled placebo-controlled randomized clinical trial (RCT) in depression to date and involved randomization of 309 medication-free depressed outpatients to receive either the selective serotonin reuptake inhibitor (SSRI) sertraline or placebo for eight weeks (FIG. 8). Of these, 228 had high-quality rsEEG data. We then compared the predictive utility of this algorithm against conventional machine learning approaches on the EEG data as well as a predictive model built on clinical data alone. The generalizability of the antidepressant-predictive signature was then tested in a second independent sample of depressed patients (N=72), for whom we had historical information about treatment response during the current depressive episode. A third independent sample of depressed patients (N=24) was used to assess two features of the treatment-predictive rsEEG signature: convergent validity and neurobiological significance. […] We also tested in the third sample whether regions that were prominent in the rsEEG signature reflected individual differences in cortical responsivity, as directly assessed through single pulse transcranial magnetic stimulation (TMS) during concurrent EEG recording. […]
To simply visualize how the SELSER predictions in FIG. 2A could be used for treatment stratification, we partitioned the patients in each arm by applying an arbitrary median split on the cross-validated predicted HAMD17 score changes derived from the sertraline alpha REO model. We then calculated the rates of treatment response (≥50% reduction in symptoms) for the portion of patients above the median (“high”) and below the median (“low”), respectively, based on the model-predicted HAMD17 change scores (FIG. 2E). […]

SMILES strings stand for the structures.

Take `CN[C@H]1CC[C@@H](c2ccc(Cl)c(Cl)c2)c2ccccc21` [sertraline]: the efficacy versus placebo result (only for patients at the higher range of predicted HAMD17 score changes) was “superior to placebo”. Further, the “response rate (≥50% reduction in symptoms)” value is 65% (high group (above median of cross-validated predicted HAMD17 score change, sertraline alpha REO model)) and 20% (low group (below median of cross-validated predicted HAMD17 score change, sertraline alpha REO model)).

Values taken from patent US12383196B2, “Treatment of depression using machine learning” (The Board of Trustees of the Leland Stanford Junior …, priority 2018, dated 2025).
